Consider 22 compounds from US20240166622A1, “FLUORINATED QUINOLINE, QUINOXALINE AND BENZO[B][1,4]OXAZINE DERIVATIVES AS DIHYDROOROTATE DEHYDROGENASE (DHODH) INHIBITORS FOR THE TREATMENT OF CANCER, AUTOIMMUNE AND INFLAMMATORY DISEASES” (Janssen Biotech, Inc., priority 2019, published 2024).

Molecules are shown by their SMILES.

Experiment [1] concerns MOLM-13 cells. The experiment can be described thus: MOLM-13 Cellular Assay. The following applies: Homo sapiens, 72 hours, cell viability by CellTiter-Glo. Format: cell-based. As to the method:
MOLM-13 cells were obtained from DSMZ and were maintained in RPMI 1640+Glutamax+25 mM HEPES (Invitrogen, catalog number 72400) supplemented with 10% heat inactivated fetal bovine serum (FBS; Invitrogen, catalog number 16140). The day prior to assay set-up, cells were pelleted, resuspended in fresh media, counted, and cells were plated at 0.4×10^6 cell/mL in a T150 flask. On the day of the assay, cells were pelleted, resuspend in fresh media, counted, and seeded at 5,000 cells/well in white opaque 96-well tissue culture treated microplates (Perkin Elmer, catalog number 6005680). Cells were exposed to different concentrations of test compounds at 37° C., 5% CO2 for 72 hours immediately after seeding. Cell viability was acquired on a Perkin Elmer Envision 2104 multilabel reader using the CellTiter-Glo assay (Promega) according to the manufacturer's instructions.
In general terms: In ATP-based viability assays light output follows the ATP content of the culture.

Experiment [2] addresses human DHODH (Homo sapiens (Human), UniProt Q02127). The experiment is described as follows: DHODH Enzymatic Assay. The following applies: purified human DHODH, DCIP absorbance, end-point mode. The experiment is classed as biochemical. As to the method:
To detect DHODH enzyme activities, dichloroindophenol (DCIP) is added as the final electron acceptor in the assay. DCIP can accept electrons from the reduced coenzyme Q generated in the assay, or from dihydroorotate (DHO) via FMN by binding presumably to the ubiquinone pocket. […] The assay buffer contained […], pH 7.5, 150 mM NaCl, 0.5 mM EDTA, and 0.1% Triton X-100 in MilliQ water. Substrate consisting of 20 mM DHO, 5 mM CoQ6, and 1 mM DCIP in assay buffer, initiates the reaction. […] Absorbance measurements were obtained using the BMG Phera Star plate-reading spectrophotomer. Purified human DHODH was purchased from Proteros (cat. No. PR-0044). Chemicals were purchased from Sigma-Aldrich, Teknova, and Avanti Polar Lipids. Liquid handling was performed using Labcyte Echo and Formulatrix Tempest.

What is called IC50 is the midpoint of a concentration-inhibition curve. Lower therefore signals greater potency in that assay.

human DHODH, sequence (Q02127 whole entry): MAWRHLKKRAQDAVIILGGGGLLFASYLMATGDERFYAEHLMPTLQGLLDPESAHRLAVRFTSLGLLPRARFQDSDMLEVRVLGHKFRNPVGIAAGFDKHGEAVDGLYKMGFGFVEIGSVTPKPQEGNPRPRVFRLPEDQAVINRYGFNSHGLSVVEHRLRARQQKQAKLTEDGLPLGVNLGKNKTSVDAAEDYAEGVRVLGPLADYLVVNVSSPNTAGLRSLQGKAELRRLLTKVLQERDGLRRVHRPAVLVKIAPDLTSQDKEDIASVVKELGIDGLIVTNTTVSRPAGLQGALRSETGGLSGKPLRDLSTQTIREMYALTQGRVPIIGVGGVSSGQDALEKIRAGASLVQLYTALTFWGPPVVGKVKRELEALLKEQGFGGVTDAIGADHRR

In the case of `CCn1c(CO)nn(-c2cc3c(cc2F)c(=O)c(-c2ccccc2C)cn3C(C)C)c1=O` [Example 10, 7-(4-Ethyl-3-(hydroxymethyl)-5-oxo-4,5-dihydro-TH-1,2,4-triazol-1-yl)-6-fluoro-1-isopropyl-3-(o-tolyl)quinolin-4(1H)-one], the IC50 in experiment [1] came out at 9 nM.
As for `CCn1c(CO)nn(-c2cc3c(cc2F)NC(c2ccccc2C)CC3C(C)C)c1=O` (racemic) [Example 13, Racemic 4-Ethyl-2-(7-fluoro-4-isopropyl-2-(o-tolyl)-1,2,3,4-tetrahydroquinolin-6-yl)-5-(hydroxymethyl)-2,4-dihydro-3H-1,2,4-triazol-3-one], the half-maximal inhibitory concentration (IC50) amounted to 20 nM in experiment [1] and 51.7 nM in experiment [2].
`CCn1c(CO)nn(-c2cc3c(cc2F)OC(c2c(F)cccc2Cl)CN3C(C)C)c1=O` (stereo not shown) [Example 6, 1-(2-(2-Chloro-6-fluorophenyl)-7-fluoro-4-isopropyl-3,4-dihydro-2H-benzo[b][1,4]oxazin-6-yl)-4-ethyl-3-(hydroxymethyl)-1H-1,2,4-triazol-5(4H)-one]: the IC50 is approximately 0.3 nM in experiment [1] and 0.504 nM in experiment [2].
The corresponding values for `CCn1c(CO)nn(-c2cc3c(cc2F)N[C@H](c2ccccc2C)C[C@@H]3C(C)C)c1=O` (stereo in doubt) [Example 23, 4-Ethyl-2-((2R*,4S*)-7-fluoro-4-isopropyl-2-(o-tolyl)-1,2,3,4-tetrahydroquinolin-6-yl)-5-(hydroxymethyl)-2,4-dihydro-3H-1,2,4-triazol-3-one] are 10 nM and 49.2 nM.
The corresponding values for `CCn1c(CO)nn(-c2ccc3c(c2)N([C@@H](C)C(F)(F)F)CC(c2c(F)cccc2Cl)N3)c1=O` (stereo partly drawn) [Example 4, 2-(2-(2-Chloro-6-fluorophenyl)-4-((S)-1,1,1-trifluoropropan-2-yl)-1,2,3,4-tetrahydroquinoxalin-6-yl)-4-ethyl-5-(hydroxymethyl)-2,4-dihydro-3H-1,2,4-triazol-3-one] are 3 nM and 2.42 nM.
Take `CCn1c(CO)nn(-c2cc3c(cc2F)C(C)=C(c2ccccc2C)CN3C(C)C)c1=O` [Example 21, 4-Ethyl-2-(6-fluoro-1-isopropyl-4-methyl-3-(o-tolyl)-1,2-dihydroquinolin-7-yl)-5-(hydroxymethyl)-2,4-dihydro-3H-1,2,4-triazol-3-one]: the values for the IC50 in experiment [1] and in experiment [2] were 2 nM and 3.71 nM, respectively.
For the compound `CCn1c(CO)nn(-c2cc3c(cc2F)C(=O)C(c2ccccc2C)CN3C(C)C)c1=O` (stereo not shown) [Example 11, 7-(4-Ethyl-3-(hydroxymethyl)-5-oxo-4,5-dihydro-1H-1,2,4-triazol-1-yl)-6-fluoro-1-isopropyl-3-(o-tolyl)-2,3-dihydroquinolin-4(1H)-one], half-maximal inhibition in experiment [1] (IC50) was put at 0.5 nM.
For the compound `CCn1c(CO)nn(-c2cc3c(cc2F)O[C@@H](c2c(F)cccc2Cl)CN3C(C)C)c1=O` (single isomer, unassigned) [Example 7, (S*)-1-(2-(2-Chloro-6-fluorophenyl)-7-fluoro-4-isopropyl-3,4-dihydro-2H-benzo[b][1,4]oxazin-6-yl)-4-ethyl-3-(hydroxymethyl)-1H-1,2,4-triazol-5(4H)-one], the IC50 in experiment [1] was determined as 0.1 nM; in experiment [2] it was 0.256 nM.
In the case of `CCn1c(CO)nn(-c2cc3c(cc2F)C(O)C(c2ccccc2C)CN3C(C)C)c1=O` (racemic) [Example 14, Racemic 4-Ethyl-2-(6-fluoro-4-hydroxy-1-isopropyl-3-(o-tolyl)-1,2,3,4-tetrahydroquinolin-7-yl)-5-(hydroxymethyl)-2,4-dihydro-3H-1,2,4-triazol-3-one], the IC50 came to 4 nM in experiment [1] and 5.62 nM in experiment [2].
The corresponding values for `CCn1c(CO)nn(-c2cc3c(cc2F)N(C(C)=O)C(c2ccccc2C)CC3C(C)C)c1=O` (stereo not shown) [Example 24, 1-(1-Acetyl-7-fluoro-4-isopropyl-2-(o-tolyl)-1,2,3,4-tetrahydroquinolin-6-yl)-4-ethyl-3-(hydroxymethyl)-1H-1,2,4-triazol-5(4H)-one] are more than 100 nM and 5530 nM.
For the compound `CCn1c(CO)nn(-c2cc3c(cc2F)[C@@H](O)[C@H](c2ccccc2C)CN3C(C)C)c1=O` (stereo in doubt) [Example 18, 4-Ethyl-2-((3R*,4S*)-6-fluoro-4-hydroxy-1-isopropyl-3-(o-tolyl)-1,2,3,4-tetrahydroquinolin-7-yl)-5-(hydroxymethyl)-2,4-dihydro-3H-1,2,4-triazol-3-one], 3 nM corresponded to half-maximal inhibition in experiment [1] (IC50).
With `CCn1c(CO)nn(-c2cc3c(cc2F)C(=O)C(C)(c2ccccc2C)CN3C(C)C)c1=O` (racemic) [Example 19, Racemic 7-(4-Ethyl-3-(hydroxymethyl)-5-oxo-4,5-dihydro-1H-1,2,4-triazol-1-yl)-6-fluoro-1-isopropyl-3-methyl-3-(o-tolyl)-23-dihydroquinolin-4(1H)-one], the values for the IC50 in experiment [1] and in experiment [2] were 4 nM and 7.06 nM, respectively.
The corresponding values for `CCn1c(CO)nn(-c2cc3c(cc2F)c(=O)c(-c2cccc(F)c2)cn3C(C)C)c1=O` [Example 1, 7-(4-Ethyl-3-(hydroxymethyl)-5-oxo-4,5-dihydro-1H-1,2,4-triazol-1-yl)-6-fluoro-3-(3-fluorophenyl)-1-isopropylquinolin-4(1H)-one] are 400 nM and 528 nM.
The corresponding values for `CCn1c(CO)nn(-c2cc3c(cc2F)O[C@H](c2c(F)cccc2Cl)CN3C(C)C)c1=O` (single isomer, unassigned) [Example 8, (R*)-1-(2-(2-Chloro-6-fluorophenyl)-7-fluoro-4-isopropyl-3,4-dihydro-2H-benzo[b][1,4]oxazin-6-yl)-4-ethyl-3-(hydroxymethyl)-1H-1,2,4-triazol-5(4H)-one] are 3 nM and 5.5 nM.
In the case of `CCn1c(CO)nn(-c2cc3c(cc2F)C(C)(O)C(c2ccccc2C)CN3C(C)C)c1=O` (racemic) [Example 20, Racemic 4-Ethyl-2-(6-fluoro-4-hydroxy-1-isopropyl-4-methyl-3-(o-tolyl)-1,2,3,4-tetrahydroquinolin-7-yl)-5-(hydroxymethyl)-2,4-dihydro-3H-1,2,4-triazol-3-one], the IC50 in experiment [1] is 0.5 nM; in experiment [2], 0.607 nM.
The corresponding values for `CCn1c(CO)nn(-c2cc3c(cc2F)[C@@H](O)[C@@H](c2ccccc2C)CN3C(C)C)c1=O` (stereo in doubt) [Example 15, 4-Ethyl-2-((3S*,4S*)-6-fluoro-4-hydroxy-1-isopropyl-3-(o-tolyl)-1,2,3,4-tetrahydroquinolin-7-yl)-5-(hydroxymethyl)-2,4-dihydro-3H-1,2,4-triazol-3-one] are 4 nM and 7.9 nM.
As for `CCn1c(CO)nn(-c2ccc3c(c2)N([C@@H](C)C(F)(F)F)C(=O)C(c2ccccc2SC)N3)c1=O` (stereo partly drawn) [Example 2, 7-(4-Ethyl-3-(hydroxymethyl)-5-oxo-4,5-dihydro-1H-1,2,4-triazol-1-yl)-3-(2-(methylthio)phenyl)-1-((S)-1,1,1-trifluoropropan-2-yl)-3,4-dihydroquinoxalin-2(1H)-one], the IC50 turned out to be 100 nM in experiment [1] and 588 nM in experiment [2].
The corresponding values for `CCn1c(CO)nn(-c2ccc3c(c2)N([C@@H](C)C(F)(F)F)C(=O)C(c2c(F)cccc2Cl)N3)c1=O` (stereo partly drawn) [Example 3, 3-(2-Chloro-6-fluorophenyl)-7-(4-ethyl-3-(hydroxymethyl)-5-oxo-4,5-dihydro-1H-1,2,4-triazol-1-yl)-1-((S)-1,1,1-trifluoropropan-2-yl)-3,4-dihydroquinoxalin-2(1H)-one] are 100 nM and 293 nM.
For `CCn1c(CO)nn(-c2cc3c(cc2F)c(=O)c(-c2c(F)cccc2Cl)cn3C(C)C)c1=O` [Example 12, 3-(2-Chloro-6-fluorophenyl)-7-(4-ethyl-3-(hydroxymethyl)-5-oxo-4,5-dihydro-1H-1,2,4-triazol-1-yl)-6-fluoro-1-isopropylquinolin-4(1H)-one], it took 30 nM to reach half-maximal inhibition in experiment [1] (IC50).
On to `CCn1c(CO)nn(-c2cc3c(cc2F)OC(c2c(F)cccc2Cl)C(=O)N3C(C)C)c1=O` (stereo not shown) [Example 5, 2-(2-Chloro-6-fluorophenyl)-6-(4-ethyl-3-(hydroxymethyl)-5-oxo-4,5-dihydro-1H-1,2,4-triazol-1-yl)-7-fluoro-4-isopropyl-2H-benzo[b][1,4]oxazin-3(4H)-one], for which the values for the IC50 in experiment [1] and in experiment [2] were 50 nM and 42.3 nM, respectively.
The corresponding values for `CCn1c(CO)nn(-c2cc3c(cc2F)N[C@@H](c2ccccc2C)C[C@H]3C(C)C)c1=O` (stereo in doubt) [Example 22, 4-Ethyl-2-((2R*,4S*)-7-fluoro-4-isopropyl-2-(0-tolyl)-1,2,3,4-tetrahydroquinolin-6-yl)-5-(hydroxymethyl)-2,4-dihydro-3H-1,2,4-triazol-3-one] are 30 nM and 113 nM.
The corresponding values for `CCn1c(CO)nn(-c2cc3c(cc2F)[C@H](O)[C@@H](c2ccccc2C)CN3C(C)C)c1=O` (stereo in doubt) [Example 17, 4-Ethyl-2-((3S*,4R*)-6-fluoro-4-hydroxy-1-isopropyl-3-(o-tolyl)-1,2,3,4-tetrahydroquinolin-7-yl)-5-(hydroxymethyl)-2,4-dihydro-3H-1,2,4-triazol-3-one] are approximately 100 nM and 173 nM.
